In patent US8609362B2, “G-proteins” (Givaudan SA, priority 2002, dated 2013):

Tests used:
Type in all cases: cell-based
[1] = molecular target: T1, human TAS2R44 (Homo sapiens, UniProt P59538); experiment: Fluo-4 calcium assay, tetracycline-inducible cells stably expressing human TAS2R44 and G16gust44; conditions: ligand 10 μM
T1 construct: expressed in transfected cells
T1 sequence (P59538 1-309): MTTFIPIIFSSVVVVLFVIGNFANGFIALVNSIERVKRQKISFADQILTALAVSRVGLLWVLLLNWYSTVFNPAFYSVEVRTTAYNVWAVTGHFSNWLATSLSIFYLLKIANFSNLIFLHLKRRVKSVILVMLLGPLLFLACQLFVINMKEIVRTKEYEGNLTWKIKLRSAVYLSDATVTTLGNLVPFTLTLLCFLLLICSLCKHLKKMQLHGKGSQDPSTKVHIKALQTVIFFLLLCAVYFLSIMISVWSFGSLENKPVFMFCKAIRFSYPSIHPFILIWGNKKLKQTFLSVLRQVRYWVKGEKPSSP
Text: (§1) The following results were obtained:

[2] = molecular target: T2, human TAS2R43 (Homo sapiens, UniProt P59537); experiment: Fluo-4 calcium assay, tetracycline-inducible cells stably expressing human TAS2R43 and G16gust44; conditions: ligand 10 μM
T2 construct: expressed in transfected cells
T2 sequence (P59537 1-309): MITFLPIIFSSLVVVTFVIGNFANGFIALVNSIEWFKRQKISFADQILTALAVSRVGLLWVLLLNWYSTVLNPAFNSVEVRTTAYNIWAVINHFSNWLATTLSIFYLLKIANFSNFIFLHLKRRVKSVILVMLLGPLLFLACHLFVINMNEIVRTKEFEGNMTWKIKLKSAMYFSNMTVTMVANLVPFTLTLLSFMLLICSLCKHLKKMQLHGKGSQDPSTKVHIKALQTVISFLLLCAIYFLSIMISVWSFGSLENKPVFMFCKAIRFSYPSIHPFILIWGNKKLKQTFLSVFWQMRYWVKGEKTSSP
Text: as §1

[3] = system: G-protein only; experiment: Fluo-4 calcium assay, G-protein only control (TAS2R44 cell line); conditions: Gα16gustducin44, ligand 10 μM
Text: as §1

[4] = system: G-protein only; experiment: Fluo-4 calcium assay, G-protein only control (TAS2R43 cell line); conditions: Gα16gustducin44, ligand 10 μM
Text: as §1

## COc1cccc2c1cc([N+](=O)[O-])c1c(C(=O)O)cc3c(c12)OCO3 [aristolochic acid]
[1]; G-protein + human TAS2R44, Gα16gustducin44
  increase in mean fluorescence over baseline following ligand addition: 17254 RFUs
[1]; HEK293 T-Rex cells, TAS2R44, G16-gustducin 44
  fluorescence signal (in words): robust fluorescence signal
[2]; G-protein + human TAS2R43, Gα16gustducin44
  increase in mean fluorescence over baseline following ligand addition: 26766 RFUs
[2]; HEK293 T-Rex cells, TAS2R43, G16-gustducin 44
  fluorescence signal (in words): robust fluorescence signal
[3]
  increase in mean fluorescence over baseline following ligand addition: 5700 RFUs
[4]
  increase in mean fluorescence over baseline following ligand addition: 3955 RFUs
